Measurements reported in US20200110072A1, “IMAGING METHODS TO ASSESS THE EFFICACY OF ANTICANCER DRUGS IN VITRO USING SPONTANEOUSLY-FORMING SPHEROIDS” (ROWAN UNIVERSITY, priority 2016, published 2020).
“Also recorded” adds a separate entry of the source.

Legend:
spheroids^MARY-X [1] = assay: Spheroids^MARY-X drug screen: bright-field image analysis of spheroid dissolution (dissolution indices); assay type: cell-based, human; conditions: for Response (deviation from well-circumscribed spheroid edge / spheroid dissolution): increasing doses, bright-field images
Protocol: In particular, the invention provides novel methods for determining drug response and calculating drug potency. In drug screens according to the invention spheroids or spheroids^MARY-X are seeded in multi-well plates, treated with vehicle only (control) and increasing doses of one or more drugs of interest. Following a 24-hr treatment period each well undergoes analysis to assess dissolution of the spheroids^MARY-X (see FIGS. 4A and 4B).
In exemplary embodiments the dissolution index is determined by applying an image analysis program on ImageJ that measures the circularity of an object's area and perimeter where ‘1’ signifies a perfect circle (i.e. intact spheroid) and numbers approaching ‘0’ signify loss of circularity (i.e. dissolute spheroid). Note that ‘0’ signifies a straight line and can never be achieved in image analysis of spheroids given the innate circularity of individual cells (see FIG. 4A). The induction of apoptosis correlates with the loss of well-circumscribed edges of the usually tight, compact spheroids, i.e. dissolution is consistent with cell death of the spheroid/embolus.
Spheroids^MARY-X Dissolution Indices: The spheroid dissolution index was determined by applying an image analysis program on ImageJ that measures the circularity of an object's area and perimeter where ‘1’ signifies a perfect circle (i.e. intact spheroid) and numbers approaching ‘0’ signify loss of circularity (i.e. dissolute spheroid). Note that ‘0’ signifies a straight line and can never be achieved in image analysis of spheroids given the innate circularity of individual cells.
Drug Screen: The 40-100 μm spheroids were distributed in equal number (˜30-50 spheroids/well) to a multi-well plate. The spheroids^MARY-X was treated with vehicle only (DMSO) and increasing doses of drug of interest in each 24-well plate. Following 24 hr treatment periods each well was imaged and analyzed with ImageJ for measurement of dissolution of the spheroids^MARY-X. The induction of apoptosis is correlated with the loss of the well circumscribed edges of the usually tight, compact spheroids^MARY-X i.e. dissolution is consistent with cell death of the spheroid/embolus.

spheroids^MARY-X [2] = assay: Spheroids^MARY-X dual-fluorescence viability assay (acridine orange / propidium iodide, Cellometer K2); assay type: cell-based, human; conditions: 24-hour treatment; for Response in dual fluorescence viability assay: AO/PI staining; for IC50: Homo sapiens, AO/PI, read-out: IC50 from dose-response curve, dual fluorescence viability assay
Protocol: Spheroids^MARY-X Viability Assay: Dual-fluorescent assays were performed on a Cellometer K2 (Nexcelom Biosciences, Lawrence, Mass.) using the viability stains, acridine orange and propium iodide.
Dissolution indices vs. standard viability assay: In an effort to validate response data acquired by image analysis (i.e. dissolution indices) an alternate method, traditionally used to determine and quantify cell viability, and was performed on a replicate drug screen. This drug screen reproduced drug dose parameters of paclitaxel (PTX), gambogic acid (GA) and MAD28. Viability was measured by dual fluorescence analysis of propidium iodide (PI) and acridine orange (AO). Following the 24-hour treatment period, spheroids^MARY-X were analyzed using the Cellometer K2 in the dual-fluorescence viability assay. The nuclear stains AO and PI were added to the control (vehicle only) and treated spheroids^MARY-X, where AO stains both live and dead (green) cells and PI stains only dead (orange) cells with compromised membranes. Fluorescent images presented here are one of eight random fields captured for the viability analyses.

[3] = system: triple-negative breast cancer 2-D culture models; conditions: preclinical analysis; cited from earlier work

## CC(C)=CCC[C@]1(C)C=Cc2c(O)c3c(c(CC=C(C)C)c2O1)O[C@]12C(=C[C@@H]4C[C@H]1C(C)(C)O[C@@]2(C/C=C(/C)C(=O)O)C4=O)C3=O [Gambogic acid]
spheroids^MARY-X [1]; 24-hour treatment
  Response (deviation from well-circumscribed spheroid edge / spheroid dissolution): complete
spheroids^MARY-X [1]; Homo sapiens, as printed in b33 for gambogic acid, read-out: IC50, spheroidal dissolution and apoptosis
  IC50: 0.54 µM
spheroids^MARY-X [1]; Homo sapiens, read-out: IC50 from dissolution indices
  IC50: 0.54 µM
spheroids^MARY-X [1]; at 2.5 μM concentration (MAD44: similar concentrations)
  Response (spheroid dissolution): complete spheroid dissolution
spheroids^MARY-X [2]
  Response in dual fluorescence viability assay: complete
  IC50: 1.2 µM
spheroids^MARY-X [2]; listed as GA
  Response in dual fluorescence viability assay: complete response

## N.N.[Cl][Pt][Cl] [Cisplatin, cisplatin]
spheroids^MARY-X [1]; 24-hour treatment
  Response (deviation from well-circumscribed spheroid edge / spheroid dissolution): No
spheroids^MARY-X [1]; 24-hour treatment, listed as cisplatin
  Response (deviation from well-circumscribed spheroid edge / spheroid dissolution): no drug response

## CC(=O)O[C@H]1C(=O)[C@@]2(C)[C@H]([C@H](OC(=O)c3ccccc3)[C@]3(O)C[C@H](OC(=O)[C@H](O)[C@@H](NC(=O)c4ccccc4)c4ccccc4)C(C)=C1C3(C)C)[C@]1(OC(C)=O)CO[C@@H]1C[C@@H]2O [Paclitaxel, paclitaxel]
spheroids^MARY-X [1]; 24-hour treatment
  Response (deviation from well-circumscribed spheroid edge / spheroid dissolution): virtually ineffective
spheroids^MARY-X [1]; 24-hour treatment, ImageJ circularity, read-out: IC50 from dissolution indices dose-response curve
  IC50: 7.79 µM
spheroids^MARY-X [1]; Homo sapiens, 24 h, 24-hour treatment, ImageJ circularity, read-out: IC50 from dissolution indices dose-response curve
  IC50: 7.8 µM
spheroids^MARY-X [1]; at a 5.0 μM concentration
  Response: no to low
spheroids^MARY-X [2]
  Response in dual fluorescence viability assay: ineffective at producing a ‘complete’ response
  IC50: 5.4 µM
spheroids^MARY-X [2]; listed as PTX
  Response in dual fluorescence viability assay: little if any activity

## CC(C)NCCCn1c(Sc2cc3c(cc2I)OCO3)nc2c(N)ncnc21 [PU-H71]
spheroids^MARY-X [1]; 24-hour treatment
  Response (deviation from well-circumscribed spheroid edge / spheroid dissolution): no response
[3]
  Response: complete response

## CN(Cc1cnc2nc(N)nc(N)c2n1)c1ccc(C(=O)N[C@@H](CCC(=O)O)C(=O)O)cc1 [Methotrexate, methotrexate]
spheroids^MARY-X [1]; 24-hour treatment
  Response (deviation from well-circumscribed spheroid edge / spheroid dissolution): no response and No
spheroids^MARY-X [1]; 24-hour treatment, listed as methotrexate
  Response (deviation from well-circumscribed spheroid edge / spheroid dissolution): no drug response

## CS(=O)(=O)CCNCc1ccc(-c2ccc3ncnc(Nc4ccc(OCc5cccc(F)c5)c(Cl)c4)c3c2)o1 [Lapatinib, lapatinib]
spheroids^MARY-X [1]; 24-hour treatment
  Response (deviation from well-circumscribed spheroid edge / spheroid dissolution): Low - Moderate
spheroids^MARY-X [1]; 24-hour treatment, listed as lapatinib
  Response (deviation from well-circumscribed spheroid edge / spheroid dissolution): Low to moderate; also recorded: slight response; also recorded: low response

## COc1cccc2c1C(=O)c1c(O)c3c(c(O)c1C2=O)C[C@@](O)(C(=O)CO)C[C@@H]3O[C@H]1C[C@H](N)[C@H](O)[C@H](C)O1 [Doxorubicin, doxorubicin]
spheroids^MARY-X [1]; 24-hour treatment
  Response (deviation from well-circumscribed spheroid edge / spheroid dissolution): mixed response
spheroids^MARY-X [1]; 24-hour treatment, listed as Doxorubicin (DOX)
  Response (deviation from well-circumscribed spheroid edge / spheroid dissolution): Moderate - Complete

## CC(C)C[C@H](NC(=O)[C@H](Cc1ccccc1)NC(=O)c1cnccn1)B(O)O [Bortezomib, bortezomib]
spheroids^MARY-X [1]; 24-hour treatment
  Response (deviation from well-circumscribed spheroid edge / spheroid dissolution): Low - Moderate
spheroids^MARY-X [1]; 24-hour treatment, listed as bortexomib
  Response (deviation from well-circumscribed spheroid edge / spheroid dissolution): Low to moderate
spheroids^MARY-X [1]; 24-hour treatment, listed as bortezomab
  Response (deviation from well-circumscribed spheroid edge / spheroid dissolution): slight response
spheroids^MARY-X [1]; 24-hour treatment, listed as bortezomib
  Response (deviation from well-circumscribed spheroid edge / spheroid dissolution): slight response; also recorded: low response
